Patent US20080176862A1, “New Compounds 617” (ASTRAZENECA AB, priority 2006, published 2008)
Structures can show the parent of a compound that is named as a salt.

Each compound was assayed against T1, human β-Secretase (soluble part, AA1-AA460; sBACE-Fc) (Homo sapiens, UniProt P56817) (assay: TR-FRET assay). Settings: substrate (Europium)CEVNLDAEFK(Qsy7) 100 nM, pH 4.5, 15 min at RT.
T1 construct: The soluble part of the human β-Secretase (AA1-AA460) was cloned into the ASP2-Fc10-1-IRES-GFP-neoK mammalian expression vector; made in house
T1 sequence (P56817 22-460): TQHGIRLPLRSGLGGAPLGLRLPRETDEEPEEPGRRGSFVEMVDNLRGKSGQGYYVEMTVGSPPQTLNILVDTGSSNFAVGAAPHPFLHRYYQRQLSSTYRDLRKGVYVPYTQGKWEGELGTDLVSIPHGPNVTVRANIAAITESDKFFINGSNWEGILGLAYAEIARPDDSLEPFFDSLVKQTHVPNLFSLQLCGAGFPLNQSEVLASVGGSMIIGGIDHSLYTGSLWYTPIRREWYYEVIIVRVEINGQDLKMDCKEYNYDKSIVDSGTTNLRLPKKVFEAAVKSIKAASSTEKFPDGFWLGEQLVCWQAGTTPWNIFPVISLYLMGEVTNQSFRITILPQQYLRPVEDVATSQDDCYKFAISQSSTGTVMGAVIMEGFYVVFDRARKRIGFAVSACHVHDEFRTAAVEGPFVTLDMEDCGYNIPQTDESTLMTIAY
Type: biochemical

| IC50 (nM) in TR-FRET assay | Compound |
| --- | --- |
| inactive | COc1cc(OS(C)(=O)=O)cc(-c2cc(C3(c4ccccc4)N=C(N)N(C)C3=O)ccc2F)c1 (centres unmarked) [Example 84, 5′-(2-Amino-1-methyl-5-oxo-4-phenyl-4,5-dihydro-1H-imidazol-4-yl)-2′-fluoro-5-methoxybiphenyl-3-yl methanesulfonate] |

Same assay, conditions: substrate (Europium)CEVNLDAEFK(Qsy7) 100 nM, pH 4.5, 15 min at RT; read-out: IC50 (nM) in TR-FRET assay

| Compound | IC50 |
| --- | --- |
| CN1C(=O)C(c2cccc(OS(C)(=O)=O)c2)(c2ccc(F)c(-c3cccnc3)c2)N=C1N (centres unmarked) [Example 90, 3-[2-Amino-4-(4-fluoro-3-pyridin-3-ylphenyl)-1-methyl-5-oxo-4,5-dihydro-1H-imidazol-4-yl]phenylmethanesulfonate] | 385 nM |
| CN1C(=O)C(c2cccc(OS(=O)(=O)c3ccc4c(c3)CCC4)c2)(c2ccc(F)c(-c3cccnc3)c2)N=C1N (centres unmarked) [Example 283, 3-[2-Amino-4-(4-fluoro-3-pyridin-3-ylphenyl)-1-methyl-5-oxo-4,5-dihydro-1H-imidazol-4-yl]phenyl indane-5-sulfonate 0.25 acetate] | 30 nM |
| CN1C(=O)C(c2cccc(OS(=O)(=O)c3cn(C)cn3)c2)(c2ccc(F)c(Br)c2)N=C1N (centres unmarked) [Example 232, 3-[2-Amino-4-(3-bromo-4-fluorophenyl)-1-methyl-5-oxo-4,5-dihydro-1H-imidazol-4-yl]phenyl 1-methyl-1H-imidazole-4-sulfonate] | 594 nM |
| CN1C(=O)C(c2cccc(OS(=O)(=O)N(C)C)c2)(c2ccc(F)c(-c3cccnc3)c2)N=C1N (centres unmarked) [Example 111, 3-[2-Amino-4-(4-fluoro-3-pyridin-3-ylphenyl)-1-methyl-5-oxo-4,5-dihydro-1H-imidazol-4-yl]phenyldimethylsulfamate] | 93 nM |
| CN1C(=O)C(c2ccc(OS(=O)(=O)c3ccc4c(c3)oc(=O)n4C)cc2)(c2ccc(F)c(-c3cccnc3)c2)N=C1N (centres unmarked) [Example 284, 4-[2-Amino-4-(4-fluoro-3-pyridin-3-ylphenyl)-1-methyl-5-oxo-4,5-dihydro-1H-imidazol-4-yl]phenyl 3-methyl-2-oxo-2,3-dihydro-1,3-benzoxazole-6-sulfonate 0.5acetate] | 60 nM |
| CCc1cc(C2(c3ccc(F)c(-c4cc(Cl)cc(OS(C)(=O)=O)c4)c3)N=C(N)N(C)C2=O)cc(CC)n1 (centres unmarked) [Example 210, 5′-[2-Amino-4-(2,6-diethylpyridin-4-yl)-1-methyl-5-oxo-4,5-dihydro-1H-imidazol-4-yl]-5-chloro-2′-fluorobiphenyl-3-yl methanesulfonate hydrochloride] | 137 nM |
| COc1cc(OS(C)(=O)=O)cc(-c2cccc(C3(c4ccc(OC(F)(F)F)cc4)N=C(N)N(C)C3=O)c2)c1 (centres unmarked) [Example 58, 3′-{2-Amino-1-methyl-5-oxo-4-[4-(trifluoromethoxy)phenyl]-4,5-dihydro-1H-imidazol-4-yl}-5-methoxybiphenyl-3-ylmethanesulfonate] | 81 nM |
| COc1cc(OS(C)(=O)=O)cc(-c2cccc(C3(c4cc(C)nc(C)c4)N=C(N)N(C)C3=O)c2)c1 (centres unmarked) [Example 305, 3′-(2-Amino-4-(2,6-dimethylpyridin-4-yl)-1-methyl-5-oxo-4,5-dihydro-1H-imidazo-4-yl)-5-methoxybiphenyl-3-yl methanesulfonate hydrochloride] | 101 nM |
| CN1C(=O)C(c2cccc(OS(=O)(=O)C(F)(F)F)c2)(c2cccc(C3=CCCC3)c2)N=C1N (centres unmarked) [Example 197, 3-[2-Amino-4-(3-cyclopent-1-en-1-ylphenyl)-1-methyl-5-oxo-4,5-dihydro-1H-imidazol-4-yl]phenyl trifluoromethanesulfonate hydrochloride] | 721 nM |
| COc1cc(OS(C)(=O)=O)cc(-c2cc(C3(c4ccnc(C)c4)N=C(N)N(C)C3=O)ccc2F)c1 (centres unmarked) [Example 211, 5′-[2-Amino-1-methyl-4-(2-methylpyridin-4-yl)-5-oxo-4,5-dihydro-1H-imidazol-4-yl]-2′-fluoro-5-methoxybiphenyl-3-yl methanesulfonate hydrocloride] | 104 nM |
| COc1ccc(C2(c3cccc(-c4cc(Cl)cc(OS(C)(=O)=O)c4)c3)N=C(N)N(C)C2=O)cc1C(F)(F)F (centres unmarked) [Example 61, 3′-{2-Amino-4-[4-methoxy-3-(trifluoromethyl)phenyl]-1-methyl-5-oxo-4,5-dihydro-1H-imidazol-4-yl}-5-chlorobiphenyl-3-ylmethanesulfonate] | 37 nM |
| CN1C(=O)C(c2ccc(OS(C)(=O)=O)cc2)(c2ccc(F)c(-c3cnccc3Cl)c2)N=C1N (centres unmarked) [Example 169, 4-{2-amino-4-[3-(4-chloropyridin-3-yl)-4-fluorophenyl]-1-methyl-5-oxo-4,5-dihydro-1H-imidazol-4-yl}phenyl methanesulfonate hydrochloride] | 171 nM |
| CN1C(=O)C(c2ccc(OS(C)(=O)=O)cc2)(c2ccc(F)c(CCC3CC3)c2)N=C1N (centres unmarked) [Example 79, 4-{2-Amino-4-[3-(2-cyclopropylethyl)-4-fluorophenyl]-1-methyl-5-oxo-4,5-dihydro-1H-imidazol-4-yl}phenyl methanesulfonate] | 552 nM |
| CN1C(=O)C(c2ccc(OS(=O)(=O)C(F)(F)F)cc2)(c2ccc(F)c(-c3cccnc3F)c2)N=C1N (centres unmarked) [Example 142, 4-{2-Amino-4-[4-fluoro-3-(2-fluoropyridin-3-yl)phenyl]-1-methyl-5-oxo-4,5-dihydro-1H-imidazol-4-yl}phenyl trifluoromethanesulfonate 0.75 acetate] | 140 nM |
| CN1C(=O)C(c2cccc(OS(C)(=O)=O)c2)(c2ccc(F)c(-c3cccnc3F)c2)N=C1N (centres unmarked) [Example 88, 3-{2-Amino-4-[4-fluoro-3-(2-fluoropyridin-3-yl)phenyl]-1-methyl-5-oxo-4,5-dihydro-1H-imidazol-4-yl}phenylmethanesulfonate] | 234 nM |
| CCCS(=O)(=O)Oc1cccc(C2(c3ccc(F)c(-c4cccnc4F)c3)N=C(N)N(C)C2=O)c1 (centres unmarked) [Example 96, 3-{2-Amino-4-[4-fluoro-3-(2-fluoropyridin-3-yl)phenyl]-1-methyl-5-oxo-4,5-dihydro-1H-imidazol-4-yl}phenyl propane-1-sulfonate] | 242 nM |
| CN1C(=O)C(c2ccc(OS(=O)(=O)c3ccccc3)cc2)(c2ccc(F)c(Br)c2)N=C1N (centres unmarked) [Example 184, 4-[2-Amino-4-(3-bromo-4-fluorophenyl)-1-methyl-5-oxo-4,5-dihydro-1H-imidazol-4-yl]phenyl benzenesulfonate] | 156 nM |

The remaining lines, values ahead:

| IC50 | Compound |
| --- | --- |
| 100 nM | COc1ccc(C#N)c(-c2cc(C3(c4cccc(OS(C)(=O)=O)c4)N=C(N)N(C)C3=O)ccc2F)c1 (centres unmarked) [Example 177, 3-[2-Amino-4-(2′-cyano-6-fluoro-5′-methoxybiphenyl-3-yl)-1-methyl-5-oxo-4,5-dihydro-1H-imidazol-4-yl]phenyl methanesulfonate hydrochloride] |
| 159 nM | COc1cc(OS(C)(=O)=O)cc(-c2cc(C3(c4ccccc4)N=C(N)N(C)C3=O)ccc2F)c1 (centres unmarked) [Example 84, 5′-(2-Amino-1-methyl-5-oxo-4-phenyl-4,5-dihydro-1H-imidazol-4-yl)-2′-fluoro-5-methoxybiphenyl-3-yl methanesulfonate] |
| 54 nM | CN1C(=O)C(c2ccc(OC(F)F)cc2)(c2ccc(F)c(-c3cncc(OS(C)(=O)=O)c3)c2)N=C1N (centres unmarked) [Example 73, 5-(5-{2-Amino-4-[4-(difluoromethoxy)phenyl]-1-methyl-5-oxo-4,5-dihydro-1H-imidazol-4-yl}-2-fluorophenyl)pyridin-3-yl methanesulfonate hydrochloride] |
| 31 nM | CN1C(=O)C(c2cccc(OS(=O)(=O)c3ccc(Cl)s3)c2)(c2ccc(F)c(-c3cncnc3)c2)N=C1N (centres unmarked) [Example 242, 3-[2-Amino-4-(4-fluoro-3-pyrimidin-5-ylphenyl)-1-methyl-5-oxo-4,5-dihydro-1H-imidazol-4-yl]phenyl-5-chlorothiophene-2-sulfonate] |
| 363 nM | CC(C)S(=O)(=O)Oc1cccc(C2(c3ccc(F)c(-c4cccc(Cl)c4)c3)N=C(N)N(C)C2=O)c1 (centres unmarked) [Example 106, 3-[2-Amino-4-(3′-chloro-6-fluorobiphenyl-3-yl)-1-methyl-5-oxo-4,5-dihydro-1H-imidazol-4-yl]phenyl propane-2-sulfonate] |
| 263 nM | CC(C)S(=O)(=O)Oc1cccc(C2(c3ccc(F)c(-c4cc(Cl)cc(Cl)c4)c3)N=C(N)N(C)C2=O)c1 (centres unmarked) [Example 109, 3-[2-Amino-4-(3′,5′-dichloro-6-fluorobiphenyl-3-yl)-1-methyl-5-oxo-4,5-dihydro-1H-imidazol-4-yl]phenyl propane-2-sulfonate] |
| 59 nM | COc1ccc(C2(c3ccc(F)c(-c4cncnc4)c3)N=C(N)N(C)C2=O)cc1OS(=O)(=O)C(F)(F)F (centres unmarked) [Example 14, 5-[2-Amino-4-(4-fluoro-3-pyrimidin-5-ylphenyl)-1-methyl-5-oxo-4,5-dihydro-[H-imidazol-4-yl]-2-methoxyphenyl trifluoromethanesulfonate 0.5 acetate] |
| 589 nM | COc1ccc(OC)c(S(=O)(=O)Oc2cccc(C3(c4ccc(F)c(-c5cncnc5)c4)N=C(N)N(C)C3=O)c2)c1 (centres unmarked) [Example 235, 3-[2-Amino-4-(4-fluoro-3-pyrimidin-5-ylphenyl)-1-methyl-5-oxo-4,5-dihydro-1H-imidazol-4-yl]phenyl 2,5-dimethoxybenzenesulfonate] |
| 292 nM | CN1C(=O)C(c2cccc(OS(C)(=O)=O)c2)(c2ccc(F)c(-c3cc(Cl)cnc3F)c2)N=C1N (centres unmarked) [Example 86, 3-{2-Amino-4-[3-(5-chloro-2-fluoropyridin-3-yl)-4-fluorophenyl]-1-methyl-5-oxo-4,5-dihydro-1H-imidazol-4-yl}phenyl methanesulfonate] |
| 122 nM | Cc1nn(C)c(Cl)c1S(=O)(=O)Oc1ccc(C2(c3ccc(F)c(-c4cccnc4)c3)N=C(N)N(C)C2=O)cc1 (centres unmarked) [Example 285, 4-[2-Amino-4-(4-fluoro-3-pyridin-3-ylphenyl)-1-methyl-5-oxo-4,5-dihydro-1H-imidazol-4-yl]phenyl 5-chloro-1,3-dimethyl-1H-pyrazole-4-sulfonate 0.25 acetate] |
| 121 nM | CN1C(=O)C(c2cccc(OS(=O)(=O)N(C)C)c2)(c2ccc(F)c(-c3cc(Cl)cc(Cl)c3)c2)N=C1N (centres unmarked) [Example 113, 3-[2-Amino-4-(3′,5′-dichloro-6-fluorobiphenyl-3-yl)-1-methyl-5-oxo-4,5-dihydro-1H-imidazol-4-yl]phenyl dimethylsulfamate] |
